Assay results: patent US20090258878A1, “TRIAZINE DERIVATIVE COMPOUND AND COMPOSITION FOR TREATING CANCER […]” (priority 2006, published 2009)
Read-outs that look alike come from different tables or passages of the source.

Experiments:
[1] = system: MCF-7 breast cancer cell line; conditions: for growth inhibition effect on cell (FIG. 1): 2 days
Description: 2×10^5 MCF-7 cells were respectively distributed into each 6 well plates and grown. Thereafter, Dan-BC1, Dan-BC2 and Dan-BC3 compounds were diluted to be dose concentration of 10, 50 and 100 μM, and after treating them into cancers for 2 days according to the concentration, they were compared by measuring the cell viability with those of drug-untreated group.

[2] = system: MCF-7 tumor cells; conditions: for Height of breast cancer mass / Major Axis of breast cancer mass / Minor Axis of breast cancer mass: nude mouse; for in vivo anticancer effect regarding breast cancer formed in nude mouse: two administrations of 500 μM, vs negative control mass size
Description: Weekly administration of experiment compound was initiated 2 days after measurement of tumor size. The concentration of the first administration was 500 μM, respectively.

[3] = system: breast cancers naturally formed in female mouse transformed to form cancer (HCCR-1); conditions: for anticancer effect against breast cancer formed in transformed mouse in vivo / breast cancer after one administration: 100 μM; for anti-cancer effect on transformed animal model, rank order (FIG. 11) / formation of cancer again at second injection: 100 μM weekly; for breast cancer after one administration: transformed mouse with naturally formed breast cancer; for formation of cancer again at second injection: transformed mouse
Description: Anticancer effect of Dan-BC1, Dan-BC2 and Dan-BC3 according to the present invention was assessed using the mouse transformed with human proto-oncogene causing cancer which was over-expressed in mammal.
Since the cell line used for the transformed mouse has capacity for forming tumor, it forms a carcinoma such as palpable tumor when transplanted into mammal. Cell line used in the present experiment produces a large quantity of HCCR-1 protein by overexpressing human proto-oncogene (hereafter, HCCR-1), which protein interacts with D52 protein (GenBank Reg. No. NM003288) as reported as being related to cancer (Byrne, J. A. et al., Cancer Res., 55, 2896-2903 (1995); and Bryne, J. A. et al., Oncogene, 16, 873-881 (1998) reference), activates protein Kinases C and Telomerase, incapacitates the function of controlling cell cycle checkpoint, and transforms into malignant tumor though the course of lowering the expression of egr-1 gene.

[4] = 1 week after First Administration, 500 μM
[5] = 1 day before First Administration
[6] = the day of First Administration, 500 μM

SMILES | growth inhibition effect on cell (FIG. 1) ([1]; 10 μM) | growth inhibition effect on cell (FIG. 1) ([1]; 50 μM) | cells survived compared with cells without administration ([1]; 100 μM, 12 hours) | cells survived compared with cells without administration ([1]; 100 μM, 24 hours) | cells survived compared with cells without administration ([1]; 100 μM, 36 hours) | growth inhibition effect on cell (FIG. 1) ([1]; 100 μM) | cells survived compared with cells without administration ([1]; 100 μM, 48 hours) | extinction effect on breast cancer cell in nude mouse, rank order (FIG. 7) ([2]; 500 μM) | Height of breast cancer mass [2, 4] [mm] | Major Axis of breast cancer mass [2, 4] [mm] | Minor Axis of breast cancer mass [2, 4] [mm] | Height of breast cancer mass [2, 5] [mm] | Major Axis of breast cancer mass [2, 5] [mm] | Minor Axis of breast cancer mass [2, 5] [mm] | Height of breast cancer mass [2, 6] [mm] | Major Axis of breast cancer mass [2, 6] [mm] | Minor Axis of breast cancer mass [2, 6] [mm] | in vivo anticancer effect regarding breast cancer formed in nude mouse [2] | anticancer effect against breast cancer formed in transformed mouse in vivo [3] | anti-cancer effect on transformed animal model, rank order (FIG. 11) [3] | also measured
C=CCNc1nc(NCCCC)nc(NCc2ccc(C(=O)NCCOCCOCCNC(=O)c3ccccc3)cc2)n1 [Dan-BC1] | weak growth inhibition effect on cell | no significant growth inhibition effect on cell | about 68% | about 37% | about 27% | an extinct effect on cell was apparent to the naked eye | all cells reached extinction | high in case of Dan-BC1, Dan-BC3 compound, and Dan-BC2 compound in that order | 2 | 10 | 8 | 2 | 4 | 2 | 5 | 12 | 10 | strong in vivo anticancer effect | strong anticancer effect | the most superior | breast cancer after one administration [3]: extinction of breast cancer was resulted even with administration of only once
CCCCNc1nc(NCc2ccncc2)nc(NCc2ccc(C(=O)NCCOCCOCCNC(=O)c3ccccc3)cc2)n1 [Dan-BC2] | weak growth inhibition effect on cell | no significant growth inhibition effect on cell | about 75% | about 49% | about 33% | an extinct effect on cell was apparent to the naked eye | 20% | high in case of Dan-BC1, Dan-BC3 compound, and Dan-BC2 compound in that order | 3 | 15 | 10 | 2 | 4 | 2 | 5 | 12 | 10 | strong in vivo anticancer effect | showed anticancer effect | as an order of the next Dan-BC3, and Dan-BC2 | formation of cancer again at second injection [3]: formation of cancer was induced again at the time of the 2nd injection; breast cancer after one administration [3]: breast cancer became extinct
CCCCNc1nc(NCc2ccc(C(=O)NCCOCCOCCNC(=O)c3ccccc3)cc2)nc(NC(CC)CC)n1 [Dan-BC3] | weak growth inhibition effect on cell | no significant growth inhibition effect on cell | about 60% | about 37% | about 7% | an extinct effect on cell was apparent to the naked eye | all cells reached extinct | high in case of Dan-BC1, Dan-BC3 compound, and Dan-BC2 compound in that order | 2 | 15 | 10 | 2 | 4 | 2 | 5 | 12 | 7 | strong in vivo anticancer effect | showed anticancer effect | as an order of the next Dan-BC3, and Dan-BC2 | formation of cancer again at second injection [3]: formation of cancer was derived again at the time of the second injection; breast cancer after one administration [3]: breast cancer became extinct
